# Results: patent publication US20100221445A1, “O-DESMETHYLVENLAFAXINE AND BAZEDOXIFENE COMBINATION PRODUCT AND USES THEREOF” (Wyeth LLC, priority 2005, published 2010)
# Key:
# uterine response = conditions: preclinical models of uterine stimulation; cited from earlier work
# [1] = tested on: MCF-7 cell line (human breast cancer cell line); conditions: MCF-7 human breast cancer cell line; cited from earlier work
# [2] = tested on: bone loss and cholesterol; conditions: ovariectomized rat model of osteopenia; cited from earlier work
# [3] = Dissolution of bilayer tablets in 0.2% Tween 80/10 mM Acetic acid at 37° C.; format: physicochemical
# [4] = Storage stability of DVS/Bazedoxifene bilayered tablets (strength, % recovery); conditions: 25/60 and 40/75 for 3 months
# Protocol: 80 DVS/Bazedoxifene bilayered tablets (150 mg/40 mg respectively) were stored at 25° C./60 relative humidity (RH) and 40° C./75 RH in a 50-mL high density polyethylene (HDPE) closed container for 2 weeks, 1 month and 3 months. The strengths of each active constituents and the dissolution rate in 0.2% Tween 80/10 mM Acetic acid at 37° C. were monitored.
# [5] = tested on: reuptake of serotonin and norepinephrine; conditions: cited from earlier work
structure (smiles),measurement,setting,value
"Cc1c(-c2ccc(O)cc2)n(Cc2ccc(OCCN3CCCCCC3)cc2)c2ccc(O)cc12 [BZA, 1-[4-(2-azepan-1-yl-ethoxy)-benzyl]-2-(4-hydroxy-phenyl)-3-methyl-1H-indol-5-ol acetic acid]",Stimulation of uterine response,uterine response,little or no stimulation
same,Behaviour in MCF-7 cell line,[1],estrogen antagonist
same,Effect in preventing bone loss and reducing cholesterol,[2],estrogen agonist-like effect
CN(C)CC(c1ccc(O)cc1)C1(O)CCCCC1 (stereo not shown) [DVS],Release (in words),[3]; first 2 hours,slow release
same,Release (in words),[3]; in 24 hours,complete release
"CN(C)CC(c1ccc(O)cc1)C1(O)CCCCC1 (stereo not shown) [ODV, 1-[2-(dimethylamino)-1-(4-phenol)ethyl]-cyclohexanol]",Stability on storage (in words),[4],stable
same,Blockade of reuptake of serotonin and norepinephrine,[5],selectively blocks
